Assay results reported in PMC9287416, “Externalized phosphatidylinositides on apoptotic cells are eat-me signals recognized by CD14” (Cell Death and Differentiation, 2022).
Where two headings read alike, the source gives them in different places.

Target: T1, CD14 (Homo sapiens, UniProt P08571)
T1 construct: full-length human CD14 expressed in HEK293T cells, recombinant; His-tagged protein used in flow cytometry
T1 sequence (P08571 20-345): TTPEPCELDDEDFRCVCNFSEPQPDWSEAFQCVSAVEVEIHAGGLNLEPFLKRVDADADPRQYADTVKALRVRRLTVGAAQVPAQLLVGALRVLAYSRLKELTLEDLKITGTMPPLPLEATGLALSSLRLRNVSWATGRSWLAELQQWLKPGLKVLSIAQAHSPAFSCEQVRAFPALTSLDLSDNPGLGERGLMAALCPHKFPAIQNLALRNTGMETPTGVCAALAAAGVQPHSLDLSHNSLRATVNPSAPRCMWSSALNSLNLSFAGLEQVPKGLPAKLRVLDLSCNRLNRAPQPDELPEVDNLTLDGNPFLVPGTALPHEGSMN
Assay: isothermal titration calorimetry
Format: binding

| Kd | Kd (PI(3,4,5)P3 in liposomes) | Compound |
| --- | --- | --- |
| 6.2 ± 1.2 µM |  | O=P(O)(O)O[C@H]1[C@H](OP(=O)(O)O)[C@@H](OP(=O)(O)O)[C@H](OP(=O)(O)O)[C@@H](OP(=O)(O)O)[C@H]1OP(=O)(O)O [IP6] |
|  | 5.6 ± 0.6 µM | PI(3,4,5)P3 |
